The assay deals with LeuS (Escherichia coli, UniProt P07813). In words: HAMA hydroxamate LC-MS/MS competition assay. In kind it is biochemical. The conditions noted are these: amino acid mixture.

Consider `CC(C)C[C@H](N)C(=O)O` [L-Leu], for which the “HAMA hydroxamate LC-MS/MS competition assay” value was “all three specificities were correctly identified and almost no side-activities detected”.

The values above are taken from PMC6988596 (Chemical Science, 2019).
